Positions of bridges follow the written chain, without caps; N, C: chain ends. No end group written: not given here.
System: growth hormone
Experiment: Growth hormone activity in nembutal-treated rats, growth hormone level by radioimmunoassay
Format: in vivo
Conditions: rats 200-250 g, nembutal 50 mg/kg i.p., 5 minutes later compound 800 μg per rat s.c. in saline; blood taken 15 minutes after injection; control rats 159 ± 16 ng/ml
Method: After hydrolysis of the peptide in methanesulfonic acid for 18 hours at 120°C in an evacuated sealed tube, the following values for the amino acid residues are obtained: Ala 1.00, Gly 1.00, Cys 1.59, Lys 1.88, Asp 0.99, Phe 3.05, Trp (present, but not quantitated), Thr 1.76. The growth hormone activity of the compound of Example 3 was determined by injecting rats weighing about 200-250 g first with nembutal intraperitoneally at a dose of 50 mg/kg then after 5 minutes injecting the rats subcutaneously with a solution of the compound of Example 3 in saline at a dose of 800 μg per rat. Blood samples are taken 15 minutes after injection with the compound of Example 3 and the growth hormone level determined by radioimmunoassay.

Substance: L-alanylglycyl-L-cysteinyl-L-lysyl-L-asparaginyl-L-phenylalanyl-L-phenylalanyl-L-tryptophyl-L-lysyl-L-threonyl-L-phenylalanyl-L-threonyl-L-cysteine-(3-13 cyclic) disulfide (AGCKNFFWKTFTC; disulfide 3-13; UniProt P61278 103-116, looked up, variant S13*) [Example 3, tridecapeptide analog of somatostatin in which the amino acid in the thirteen position has been omitted]
- growth hormone level: 49 ± 7 ng/mL

— patent US3933784A, “Des-(ser^13)-srif and intermediates” (American Home Products Corporation, priority 1975, dated 1976)
